biological target: T1, human GPR119 (Homo sapiens, UniProt Q8TDV5); assay: AlphaScreen cAMP assay in MIN6 cells stably transfected with human GPR119; format: cell-based; conditions: Min-6/hGPR119 cells, 45 min at room temperature
T1 construct: expression vector for human GPR119 cDNA (Acc. No. NP_848566); expressed in transfected cells; Min-6/hGPR119
T1 sequence (Q8TDV5 1-335): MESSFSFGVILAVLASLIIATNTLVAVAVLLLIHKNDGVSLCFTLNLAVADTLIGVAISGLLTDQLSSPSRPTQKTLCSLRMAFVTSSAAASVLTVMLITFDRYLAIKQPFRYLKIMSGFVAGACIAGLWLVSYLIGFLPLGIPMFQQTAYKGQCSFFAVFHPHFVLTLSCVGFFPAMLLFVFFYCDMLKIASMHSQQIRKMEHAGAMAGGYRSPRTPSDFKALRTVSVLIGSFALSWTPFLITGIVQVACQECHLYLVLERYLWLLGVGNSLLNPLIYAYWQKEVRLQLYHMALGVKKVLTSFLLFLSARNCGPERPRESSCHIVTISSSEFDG
Procedure, shortened: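 MIN6 cells stably expressing human GPR119, seeded 10000/well and grown 24 h, were exposed to compound in pH 7.4 buffer with 0.5 mM IBMX, 0.1% BSA and 1% DMSO for 45 min at room temperature. Intracellular cAMP then measured by AlphaScreen.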

Going from `CC(C)(C)OC(=O)N1CCC(N(C(=O)c2ncc(-c3ccc(C#N)c(F)c3)cn2)C2CC2)CC1` [Example 66, 4-{[5-(4-Cyano-3-fluoro-phenyl)-pyrimidine-2-carbonyl]-cyclopropyl-amino}-piperidine-1-carboxylic acid tert-butyl ester] to `CC(C)(C)OC(=O)N1CCC(N(C(=O)c2cnc(-c3cccc(C#N)c3)nc2)C2CC2)CC1` [Example 75, 4-{[2-(3-Cyano-phenyl)-pyrimidine-5-carbonyl]-cyclopropyl-amino}-piperidine-1-carboxylic acid tert-butyl ester], the EC50 falls from 0.636 µM to 0.17 µM (3.7-fold). The second is the more potent here.

Compared with `CN(CC#N)C(=O)c1ccc(-c2ncc(C(=O)N(C3CC3)C3CCN(C(=O)OC(C)(C)C)CC3)cn2)cc1` [Example 221, 4-({2-[4-(Cyanomethyl-methyl-carbamoyl)-phenyl]-pyrimidine-5-carbonyl}-cyclopropyl-amino)-piperidine-1-carboxylic acid tert-buyl ester], `COCCN(C)C(=O)c1ccc(-c2ncc(C(=O)N(C3CC3)C3CCN(C(=O)OC(C)(C)C)CC3)cn2)cc1` [Example 196, 4-[Cyclopropyl-(2-{4-[(2-methoxy-ethyl)-methyl-carbamoyl]-phenyl}-pyrimidine-5-carbonyl)-amino]-piperidine-1-carboxylic acid tert-butyl ester] is 2-fold higher in EC50: 0.11 µM for the first, 0.215 µM for the second. The first is the more potent here.

Compared with `CC(C)(C)OC(=O)N1CCC(N(C(=O)c2cnc(-c3ccc(C(=O)N4CCCC4CO)cc3)nc2)C2CC2)CC1` (centres unmarked) [Example 242, 4-(Cyclopropyl-{2-[4-(2-hydroxymethyl-pyrrolidine-1-carbonyl)-phenyl]-pyrimidine-5-carbonyl}-amino)-piperidine-1-carboxylic acid tert-butyl ester], `COCC1CCCCN1C(=O)c1ccc(-c2ncc(C(=O)N(C3CC3)C3CCN(C(=O)OC(C)(C)C)CC3)cn2)cc1` (centres unmarked) [Example 182, 4-(Cyclopropyl-{2-[4-(2-methoxymethyl-piperidine-1-carbonyl)-phenyl]-pyrimidine-5-carbonyl}-amino)-piperidine-1-carboxylic acid tert-butyl ester] is 1.9-fold lower in EC50: 0.593 µM for the first, 0.319 µM for the second.

First: CC(C)(C)OC(=O)N1CCC(N(C(=O)c2cnc(-c3ccc(CC#N)cc3)nc2)C2CC2)CC1 [Example 78, 4-{[2-(4-Cyanomethyl-phenyl)-pyrimidine-5-carbonyl]-cyclopropyl-amino}-piperidine-1-carboxylic acid tert-butyl ester]
Second: CC(C)(C)OC(=O)N1CCC(N(C(=O)c2cnc(-c3ccc(NS(C)(=O)=O)cc3)nc2)C2CC2)CC1 [Example 79, 4-{Cyclopropyl-[2-(4-methanesulfonylamino-phenyl)-pyrimidine-5-carbonyl]-amino}-piperidine-1-carboxylic acid tert-butyl ester]
The EC50 of the first is 23-fold lower: 0.009 µM for the first, 0.21 µM for the second. The first is the more potent here.

Compared with `CC(C)(C)OC(=O)N1CCC(N(C(=O)c2cnc(-n3ccnc3)nc2)C2CC2)CC1` [Example 247], `CC(C)(C)OC(=O)N1CCC(N(C(=O)c2cnc(-n3cc(CCO)cn3)nc2)C2CC2)CC1` [Example 58, 4-(Cyclopropyl-{2-[4-(2-hydroxy-ethyl)-pyrazol-1-yl]-pyrimidine-5-carbonyl}-amino)-piperidine-1-carboxylic acid tert-butyl ester] is 43-fold higher in EC50: 0.051 µM for the first, 2.21 µM for the second. The first is the more potent here.

First: CN(CC1(C)COC1)C(=O)c1ccc(-c2ncc(C(=O)N(C3CC3)C3CCN(C(=O)OC(C)(C)C)CC3)cn2)cc1 [Example 206, 4-[Cyclopropyl-(2-{4-[methyl-(3-methyl-oxetan-3-ylmethyl)-carbamoyl]-phenyl}-pyrimidine-5-carbonyl)-amino]-piperidine-1-carboxylic acid tert-butyl ester]
Second: CN(Cc1cccnc1)C(=O)c1ccc(-c2ncc(C(=O)N(C3CC3)C3CCN(C(=O)OC(C)(C)C)CC3)cn2)cc1 [Example 197, 4-(Cyclopropyl-{2-[4-(methyl-pyridin-3-ylmethyl-carbamoyl)-phenyl]-pyrimidine-5-carbonyl}-amino)-piperidine-1-carboxylic acid tert-butyl ester]
The EC50 of the first is 1.8-fold higher: 0.312 µM for the first, 0.169 µM for the second. The second is the more potent here.

Compared with `CC(C)(C)OC(=O)N1CCC(N(C(=O)c2ccc(-c3cccc([N+](=O)[O-])c3)o2)C2CC2)CC1` [Example 62, 4-{Cyclopropyl-[5-(3-nitro-phenyl)-furan-2-carbonyl]-amino}-piperidine-1-carboxylic acid tert-butyl ester], `CC(C)(C)OC(=O)N1CCC(N(C(=O)c2cnc(-c3ccc(S(C)(=O)=O)c(F)c3)o2)C2CC2)CC1` [Example 34, 4-{Cyclopropyl-[2-(3-fluoro-4-methanesulfonyl-phenyl)-oxazole-5-carbonyl]-amino}-piperidine-1-carboxylic acid tert-butyl ester] is 9.1-fold lower in EC50: 0.786 µM for the first, 0.086 µM for the second.

First: CC(C)(C)OC(=O)N1CCC(N(C(=O)c2cnc(-c3cnco3)o2)C2CC2)CC1 [Example 33, 4-[([2,5′]Bioxazolyl-5-carbonyl)-cyclopropyl-amino]-piperidine-1-carboxylic acid tert-butyl ester]
Second: Cc1c(C(=O)N(C2CC2)C2CCN(C(=O)OC(C)(C)C)CC2)noc1-c1ccc(C#N)cc1 [Example 44, 4-{[5-(4-Cyano-phenyl)-4-methyl-isoxazole-3-carbonyl]-cyclopropyl-amino}-piperidine-1-carboxylic acid tert-butyl ester]
The EC50 of the first is 14-fold higher: 0.639 µM for the first, 0.047 µM for the second. The second is the more potent here.

Going from `CC(C)(C)OC(=O)N1CCC(N(C(=O)c2cnc(-c3ccc(C(=O)N4CCC[C@H]4C#N)c(F)c3)nc2)C2CC2)CC1` [Example 125, 4-({2-[4-(2-Cyano-pyrrolidine-1-carbonyl)-3-fluoro-phenyl]-pyrimidine-5-carbonyl}-cyclopropyl-amino)-piperidine-1-carboxylic acid tert-butyl ester] to `CN(CC1CCOCC1)C(=O)c1ccc(-c2ncc(C(=O)N(C3CC3)C3CCN(C(=O)OC(C)(C)C)CC3)cn2)cc1F` [Example 158, 4-[Cyclopropyl-(2-{3-fluoro-4-[methyl-(tetrahydro-pyran-4-ylmethyl)-carbamoyl]-phenyl}-pyrimidine-5-carbonyl)-amino]-piperidine-1-carboxylic acid tert-butyl ester], the EC50 rises from 0.18 µM to 0.359 µM (2-fold). The first is the more potent here.

Compared with `CC(C)(C)OC(=O)N1CCC(N(C(=O)c2cnc(-c3ccc(C(=O)Nc4ccn[nH]4)c(F)c3)nc2)C2CC2)CC1` [Example 112, 4-(Cyclopropyl-{2-[3-fluoro-4-(2H-pyrazol-3-ylcarbamoyl)-phenyl]-pyrimidine-5-carbonyl}-amino)-piperidine-1-carboxylic acid tert-butyl ester], `Cc1cnc(CNC(=O)c2ccc(-c3ncc(C(=O)N(C4CC4)C4CCN(C(=O)OC(C)(C)C)CC4)cn3)cc2F)s1` [Example 111, 4-[Cyclopropyl-(2-{3-fluoro-4-[(5-methyl-thiazol-2-ylmethyl)-carbamoyl]-phenyl}-pyrimidine-5-carbonyl)-amino]-piperidine-1-carboxylic acid tert-butyl ester] is 3.4-fold lower in EC50: 0.22 µM for the first, 0.064 µM for the second. The second is the more potent here.

Compared with `CCOc1ccc(-c2ncc(C(=O)N(C3CC3)C3CCN(C(=O)OC(C)C)CC3)cn2)cn1` [Example 59, 4-{Cyclopropyl-[2-(6-ethoxy-pyridin-3-yl)-pyrimidine-5-carbonyl]-amino}-piperidine-1-carboxylic acid isopropyl ester], `CN(CCO)C(=O)c1ccc(-c2ncc(C(=O)N(C3CC3)C3CCN(C(=O)OC(C)(C)C)CC3)cn2)cc1F` [Example 113, 4-[Cyclopropyl-(2-{3-fluoro-4-[(2-hydroxy-ethyl)-methyl-carbamoyl]-phenyl}-pyrimidine-5-carbonyl)-amino]-piperidine-1-carboxylic acid tert-butyl ester] is 3.6-fold higher in EC50: 0.167 µM for the first, 0.597 µM for the second.

In the case of `Cc1nccn1-c1ncc(C(=O)N(C2CC2)C2CCN(C(=O)OC3(C)CC3)CC2)cn1` [Example 55, 4-{Cyclopropyl-[2-(2-methyl-imidazol-1-yl)-pyrimidine-5-carbonyl]-amino}-piperidine-1-carboxylic acid 1-methyl-cyclopropyl ester], the EC50 is reported as 0.106 µM.

Reference: patent publication US20140045823A1 (Neurocrine Biosciences, Inc., priority 2012, published 2014)
